Data as given in ChEMBL document CHEMBL1240448, “Synthesis of N-methyl-bisindolylmaleimide amino acid methyl ester conjugates and cytotoxicity study” (Eur J Med Chem, 2010).

Experiments:
HCT-8 = experiment: Cytotoxicity against human HCT8 cells after 96 hrs by MTT assay; details: HCT-8, 96 h
MCF7 = experiment: Cytotoxicity against human MCF7 cells after 96 hrs by MTT assay; details: MCF7, 96 h
A549 = experiment: Cytotoxicity against human A549 cells after 96 hrs by MTT assay; details: A549, 96 h
A2780 = experiment: Cytotoxicity against human A2780 cells after 96 hrs by MTT assay; details: A2780, 96 h
BGC-823 = experiment: Cytotoxicity against human BGC823 cells after 96 hrs by MTT assay; details: BGC-823, 96 h
Bel-7402 = experiment: Cytotoxicity against human Bel7402 cells after 96 hrs by MTT assay; details: Bel-7402, 96 h

| Structure (SMILES) | IC50 (HCT-8) | IC50 (MCF7) | IC50 (A549) | IC50 (A2780) | IC50 (BGC-823) | IC50 (Bel-7402) |
| --- | --- | --- | --- | --- | --- | --- |
| CC[C@H](C)[C@@H](NC(=O)Cn1cc(C2=C(c3c[nH]c4ccccc34)C(=O)N(C)C2=O)c2ccccc21)C(=O)OC | > 100 µM | > 100 µM | > 100 µM | > 100 µM | > 100 µM | > 100 µM |
| COC(=O)CCNC(=O)Cn1cc(C2=C(c3c[nH]c4ccccc34)C(=O)N(C)C2=O)c2ccccc21 | 50.9 µM | 47.8 µM | 37.6 µM | 44.5 µM | 44.9 µM | 28.4 µM |
| COC(=O)[C@H](NC(=O)Cn1cc(C2=C(c3c[nH]c4ccccc34)C(=O)N(C)C2=O)c2ccccc21)C(C)C | 25.8 µM | 16 µM | 30.6 µM | 23.8 µM | 48.2 µM | 4.01 µM |
| COC(=O)C(Cc1ccccc1)NC(=O)Cn1cc(C2=C(c3c[nH]c4ccccc34)C(=O)N(C)C2=O)c2ccccc21 (single isomer, unassigned) | 72.4 µM | 95.3 µM | 88.1 µM | 77.9 µM | 98 µM | 96.7 µM |
| COC(=O)CCC(NC(=O)Cn1cc(C2=C(c3c[nH]c4ccccc34)C(=O)N(C)C2=O)c2ccccc21)C(=O)OC (single isomer, unassigned) | 29.2 µM | 23.4 µM | 73.7 µM | 32.3 µM | 25 µM | 47.4 µM |
| COC(=O)[C@H](NC(=O)Cn1cc(C2=C(c3c[nH]c4ccccc34)C(=O)N(C)C2=O)c2ccccc21)[C@@H](C)O (single isomer, unassigned) | 23.4 µM | 22.9 µM | 25.7 µM | 21.4 µM | 23.3 µM | > 100 µM |
| COC(=O)CNC(=O)Cn1cc(C2=C(c3c[nH]c4ccccc34)C(=O)N(C)C2=O)c2ccccc21 | 22.9 µM | 36 µM | 78.3 µM | 33.9 µM | 88.4 µM | 28.4 µM |
| COC(=O)C(CC(C)C)NC(=O)Cn1cc(C2=C(c3c[nH]c4ccccc34)C(=O)N(C)C2=O)c2ccccc21 (single isomer, unassigned) | 37.8 µM | 37.4 µM | > 100 µM | 38.5 µM | 45.5 µM | 42.4 µM |
| COC(=O)C(Cc1ccc(O)cc1)NC(=O)Cn1cc(C2=C(c3c[nH]c4ccccc34)C(=O)N(C)C2=O)c2ccccc21 (single isomer, unassigned) | 93.2 µM | 51.7 µM | > 100 µM | > 100 µM | > 100 µM | 28.1 µM |
| COC(=O)[C@@H](CO)NC(=O)Cn1cc(C2=C(c3c[nH]c4ccccc34)C(=O)N(C)C2=O)c2ccccc21 | 22.9 µM | 24.5 µM | 37.9 µM | 23.2 µM | 28.9 µM | 67.2 µM |
| COC(=O)C(Cc1c[nH]c2ccccc12)NC(=O)Cn1cc(C2=C(c3c[nH]c4ccccc34)C(=O)N(C)C2=O)c2ccccc21 (single isomer, unassigned) | 9.19 µM | 4.83 µM | 45.2 µM | 5.39 µM | 3.73 µM | 4.11 µM |
| COC(=O)CC(NC(=O)Cn1cc(C2=C(c3c[nH]c4ccccc34)C(=O)N(C)C2=O)c2ccccc21)C(=O)OC (single isomer, unassigned) | 23.4 µM | 25.8 µM | 74.2 µM | 15.4 µM | 24.6 µM | 9.36 µM |
| COC(=O)C(Cc1ccc(O)c(O)c1)NC(=O)Cn1cc(C2=C(c3c[nH]c4ccccc34)C(=O)N(C)C2=O)c2ccccc21 (single isomer, unassigned) | > 100 µM | > 100 µM | > 100 µM | > 100 µM | > 100 µM | > 100 µM |
| COC(=O)C(C)NC(=O)Cn1cc(C2=C(c3c[nH]c4ccccc34)C(=O)N(C)C2=O)c2ccccc21 (single isomer, unassigned) | 21.4 µM | 15.3 µM | 30.5 µM | 15.8 µM | 60.4 µM | 9.34 µM |
